Where a name gives a salt, the structure may show the parent alone.
Experiments:
Type in all cases: cell-based
SMARCA4 = molecular target: T1, SMARCA4 (Homo sapiens, UniProt P51532); experiment: SMARCA4 degradation in MV-4-11 cells by Western blot; settings: MV4-11, at 100 nM, 16 hours, vs DMSO, read-out: Percent degradation SMARCA4
T1 construct: endogenous in cells; host or cells: MV-4-11 (CRL-9591)
Protocol: (§1) Example-P3: Determination of SMARCA2 and SMARCA4 Degradation in MV-4-11 Cells by Western Blot
(§2) MV-4-11 (CRL-9591™) cells were plated in 6 well plates using complete Iscove's Modified Dulbecco's Medium. On the third day, compounds of present invention were added to cells from 10 mM stocks made in DMSO (Sigma Cat no. D2650). Each concentration of compound was tested with DMSO not exceeding final percentage of 0.1 in the cells. Cells were incubated with the compound for 16 hours followed by harvesting with 1×RIPA lysis buffer (Thermo Fischer, catalogue number #89900) containing protease inhibitor cocktail (Sigma catalogue number #P-8340). Equal amount of protein was loaded on SDS PAGE gel for electrophoresis. Western blot was carried out for detection of either SMARCA2 (Cell signalling technologies, catalogue number #11966) or SMARCA4 antibody (Cell signalling technologies, catalogue number #52251). Beta-Tubulin antibody (Cell signalling technologies, catalogue number #86298) was used as loading control. Percentage of SMARCA2 or SMARCA4 degradation was calculated using formula % Degradation=100−(normalized band intensity in treated sample/normalized band intensity in DMSO sample)*100. Here, “ND” refers to Not determined.

SMARCA2 = molecular target: T2, SMARCA2 (Homo sapiens, UniProt P51531); experiment: SMARCA2 degradation in MV-4-11 cells by Western blot; settings: MV4-11, 16 h, at 100 nM, vs DMSO, read-out: Percent degradation SMARCA2
T2 construct: endogenous in cells; host or cells: MV-4-11 (CRL-9591)
Protocol: as §1, §2

MV-4-11 cells = experiment: Anti proliferative activity in MV-4-11 cells by Cell Titer Glo (Promega) assay; settings: 3 days, CellTiter-Glo
Protocol: Example-P2: Determination of Anti Proliferative Activity of Compounds in Cell Lines MV-4-11 by Cell Titer Glo® (Promega) Assay
MV-4-11 (CRL-9591™) cells were seeded in 96 well plate flat black clear bottom plates (Corning, Cat. No 3904) using complete DMEM Medium. Next day, selected compounds of the present invention were added to cells from 10 mM stocks made in DMSO (Sigma Cat no. D2650). Each concentration of compound was tested in triplicate with DMSO concentration at a final percentage not exceeding 0.3 in the cells. After the incubation of MV-4-11 cells with compound for 3 days; assay was terminated using 100 μl of CellTiter Glo® reagent (Promega, Cat. no G7572). CellTiter-Glo® Luminescent reagent determines the number of viable cells based on quantitation of ATP present which is an indicator of cell number and metabolic activity. Luminescence readings were taken in Victor-5 instrument. Percent inhibition of proliferation was calculated using formula, % inhibition=100−(luminescence value of test/luminescence value of DMSO control)*100. DMSO control (0%)=Cells in complete media with DMSO; blank=Media alone containing DMSO. EC50 was calculated using graph pad prism software.

SK-MEL-5 cells = experiment: Anti proliferative activity in SK-MEL-5 cells by Cell Titer Glo (Promega) assay; settings: retreatment on Day 4, terminated on day 8, CellTiter-Glo
Protocol: Example-P1: Determination of Anti Proliferative Activity of Compounds in Cell Lines SK-MEL-5 by Cell Titer Glo® (Promega) Assay
Cells were seeded into 96-well plates and the plate was incubated in 37 degrees incubator overnight. The next day, compounds were diluted 3-fold to cover 9-point concentration range in DMSO. Intermediate plate dilution was prepared in media followed with compound treatment in cells. Retreatment of cells with compound dilutions was performed on Day 4 and assay was terminated on day 8 for SK-MEL-5 cells using CellTiter-Glo and the plate was kept on orbital shaker for 20 minutes at RT. Assay was terminated on day 6 for RERF-LC-A1 without a compound retreatment. Luminescence signal was recorded on VICTOR^3 instrument. Percent inhibition of proliferation was calculated at each concentration and plotted against the compound concentration. EC50 value was calculated using GraphPad® software.

T1 sequence (P51532 whole entry): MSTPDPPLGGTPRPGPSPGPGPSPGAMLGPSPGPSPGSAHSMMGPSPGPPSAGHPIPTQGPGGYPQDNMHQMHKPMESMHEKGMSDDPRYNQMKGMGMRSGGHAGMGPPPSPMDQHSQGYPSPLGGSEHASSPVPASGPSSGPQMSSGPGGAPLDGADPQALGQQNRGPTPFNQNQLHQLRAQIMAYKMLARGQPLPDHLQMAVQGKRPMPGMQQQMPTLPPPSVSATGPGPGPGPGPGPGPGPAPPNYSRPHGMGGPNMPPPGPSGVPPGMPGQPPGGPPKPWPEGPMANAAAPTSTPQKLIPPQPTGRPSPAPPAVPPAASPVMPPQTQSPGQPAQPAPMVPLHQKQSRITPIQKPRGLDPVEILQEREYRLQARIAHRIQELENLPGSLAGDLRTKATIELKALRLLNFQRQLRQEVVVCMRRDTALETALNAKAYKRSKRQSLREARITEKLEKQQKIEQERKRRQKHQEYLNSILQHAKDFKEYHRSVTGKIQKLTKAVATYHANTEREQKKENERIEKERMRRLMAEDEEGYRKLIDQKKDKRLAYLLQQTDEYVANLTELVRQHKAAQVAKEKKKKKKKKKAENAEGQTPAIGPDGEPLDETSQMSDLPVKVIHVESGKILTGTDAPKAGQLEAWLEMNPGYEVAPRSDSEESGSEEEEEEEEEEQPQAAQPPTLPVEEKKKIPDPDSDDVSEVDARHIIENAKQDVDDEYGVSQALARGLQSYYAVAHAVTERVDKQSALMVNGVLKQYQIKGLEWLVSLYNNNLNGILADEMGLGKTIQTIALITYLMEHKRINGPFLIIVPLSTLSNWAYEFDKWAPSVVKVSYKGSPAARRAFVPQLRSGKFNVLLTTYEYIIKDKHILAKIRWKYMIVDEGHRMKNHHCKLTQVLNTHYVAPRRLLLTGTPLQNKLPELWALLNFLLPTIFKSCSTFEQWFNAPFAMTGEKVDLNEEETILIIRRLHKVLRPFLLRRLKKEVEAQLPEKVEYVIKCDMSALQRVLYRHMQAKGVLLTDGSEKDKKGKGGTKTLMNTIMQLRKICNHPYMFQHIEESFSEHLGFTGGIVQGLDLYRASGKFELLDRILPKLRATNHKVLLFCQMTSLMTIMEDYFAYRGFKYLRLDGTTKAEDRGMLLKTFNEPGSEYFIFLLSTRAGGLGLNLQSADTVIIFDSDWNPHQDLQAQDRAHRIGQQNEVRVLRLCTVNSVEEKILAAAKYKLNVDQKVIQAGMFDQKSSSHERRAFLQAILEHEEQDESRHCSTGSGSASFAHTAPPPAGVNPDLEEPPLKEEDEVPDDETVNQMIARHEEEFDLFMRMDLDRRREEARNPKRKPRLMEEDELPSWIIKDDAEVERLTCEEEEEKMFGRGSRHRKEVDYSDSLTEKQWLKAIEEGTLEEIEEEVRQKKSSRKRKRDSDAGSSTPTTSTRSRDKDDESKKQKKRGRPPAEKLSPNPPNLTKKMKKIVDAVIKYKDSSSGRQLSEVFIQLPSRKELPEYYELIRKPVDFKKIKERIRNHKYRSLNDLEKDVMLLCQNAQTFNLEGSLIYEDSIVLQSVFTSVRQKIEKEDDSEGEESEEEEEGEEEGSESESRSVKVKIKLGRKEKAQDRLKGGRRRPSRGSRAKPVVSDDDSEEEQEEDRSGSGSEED
T2 sequence (P51531 whole entry): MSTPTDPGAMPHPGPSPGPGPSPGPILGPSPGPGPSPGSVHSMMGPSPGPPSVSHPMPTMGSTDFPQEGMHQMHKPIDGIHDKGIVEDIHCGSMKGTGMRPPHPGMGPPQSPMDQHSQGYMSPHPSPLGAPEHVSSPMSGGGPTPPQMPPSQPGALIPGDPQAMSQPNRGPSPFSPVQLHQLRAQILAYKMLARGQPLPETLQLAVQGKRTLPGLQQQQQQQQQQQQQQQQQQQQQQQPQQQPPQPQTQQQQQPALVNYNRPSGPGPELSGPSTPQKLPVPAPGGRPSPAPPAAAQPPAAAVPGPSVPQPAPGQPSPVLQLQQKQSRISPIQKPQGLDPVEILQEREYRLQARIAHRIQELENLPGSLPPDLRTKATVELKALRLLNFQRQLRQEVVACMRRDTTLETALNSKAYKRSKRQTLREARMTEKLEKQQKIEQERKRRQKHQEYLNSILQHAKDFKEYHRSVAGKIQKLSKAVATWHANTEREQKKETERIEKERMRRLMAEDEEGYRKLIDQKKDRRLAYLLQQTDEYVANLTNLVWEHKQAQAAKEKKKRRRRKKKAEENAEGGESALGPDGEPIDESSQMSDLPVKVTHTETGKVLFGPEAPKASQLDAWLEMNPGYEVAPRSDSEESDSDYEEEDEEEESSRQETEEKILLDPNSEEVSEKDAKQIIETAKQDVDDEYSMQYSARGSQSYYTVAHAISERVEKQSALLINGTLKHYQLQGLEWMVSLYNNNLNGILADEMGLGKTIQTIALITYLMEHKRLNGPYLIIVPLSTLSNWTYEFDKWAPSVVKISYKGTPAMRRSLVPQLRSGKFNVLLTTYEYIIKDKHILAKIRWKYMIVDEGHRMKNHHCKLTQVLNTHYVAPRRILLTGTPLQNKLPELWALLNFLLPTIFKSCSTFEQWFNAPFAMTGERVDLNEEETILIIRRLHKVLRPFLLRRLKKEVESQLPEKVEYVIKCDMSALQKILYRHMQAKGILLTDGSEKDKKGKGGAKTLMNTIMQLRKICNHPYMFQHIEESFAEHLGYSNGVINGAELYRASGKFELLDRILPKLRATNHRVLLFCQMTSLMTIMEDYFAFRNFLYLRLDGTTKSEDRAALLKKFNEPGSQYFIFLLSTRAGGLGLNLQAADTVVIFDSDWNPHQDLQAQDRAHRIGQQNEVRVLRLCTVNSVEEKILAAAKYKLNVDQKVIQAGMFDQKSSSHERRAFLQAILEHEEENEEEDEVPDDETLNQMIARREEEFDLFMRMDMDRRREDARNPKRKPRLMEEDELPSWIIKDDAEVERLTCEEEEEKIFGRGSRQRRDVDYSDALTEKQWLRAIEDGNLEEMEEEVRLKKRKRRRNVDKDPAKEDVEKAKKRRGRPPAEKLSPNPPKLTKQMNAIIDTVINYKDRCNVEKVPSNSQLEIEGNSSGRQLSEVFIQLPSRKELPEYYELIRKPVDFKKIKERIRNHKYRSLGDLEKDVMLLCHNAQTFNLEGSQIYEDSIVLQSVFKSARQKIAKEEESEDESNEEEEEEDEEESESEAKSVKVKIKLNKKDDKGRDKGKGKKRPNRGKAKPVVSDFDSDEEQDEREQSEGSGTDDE

SMILES	inhibition at 0.1 µM (SMARCA4) [%]	inhibition at 0.1 µM (SMARCA2) [%]	EC50 (MV-4-11 cells; Homo sapiens, MV4-11, 72 h) [nM]	EC50 (SK-MEL-5 cells; Homo sapiens) [nM]	EC50 (MV-4-11 cells) [nM]	EC50 (SK-MEL-5 cells) [nM]
Cn1c2cc(N3CCC(N4CCC(c5ccc(NC6CCC(=O)NC6=O)cc5F)CC4)CC3)ccc2n2c3cccc(Cl)c3c(=O)nc12 (stereo not shown) [Compound 36, 3-((4-(1′-(4-chloro-7-methyl-5-oxo-5,7-dihydrobenzo[4,5]imidazo[1,2-a]quinazolin-9-yl)-[1,4′-bipiperidin]-4-yl)-3-fluorophenyl)amino)piperidine-2,6-dione]	97	99	> 100	< 10		
CC(C)n1c2cc(N3CCC(N4CCC(c5ccc(NC6CCC(=O)NC6=O)cc5F)CC4)CC3)ccc2n2c3cccc(Cl)c3c(=O)nc12 (stereo not shown) [Compound 29, 3-((4-(1′-(4-chloro-7-isopropyl-5-oxo-5,7-dihydrobenzo[4,5]imidazo[1,2-a]quinazolin-9-yl)-[1,4′-bipiperidin]-4-yl)-3-fluorophenyl)amino)piperidine-2,6-dione-HCl salt]	97	96	< 10	< 10		
Cn1c2cc(N3CCC(N4CCN(c5ccc(NC6CCC(=O)NC6=O)cc5F)CC4)CC3)ccc2n2c3cccc(N)c3c(=O)nc12 (stereo not shown) [Compound 40, 3-((4-(4-(1-(4-amino-7-methyl-5-oxo-5,7-dihydrobenzo[4,5]imidazo[1,2-a]quinazolin-9-yl)piperidin-4-yl)piperazin-1-yl)-3-fluorophenyl)amino)piperidine-2,6-dione]		48	> 100	> 100		
Nc1cccc2c1c(=O)nc1n(C3CCCC3)c3cc(N4CCC(N5CCN(c6ccc(C7CCC(=O)NC7=O)cc6)CC5)CC4)ccc3n21 (stereo not shown) [Compound 26, 3-(4-(4-(1-(4-amino-7-cyclopentyl-5-oxo-5,7-dihydrobenzo[4,5]imidazo[1,2-a]quinazolin-9-yl)piperidin-4-yl)piperazin-1-yl)phenyl)piperidine-2,6-dione-HCl salt]	33	68	> 100	10 to 100		
O=C1CCC(c2ccc(C3CCN(C4CCN(c5ccc6c(c5)n(C5CCCC5)c5nc(=O)c7c(Br)cccc7n65)CC4)CC3)cc2)C(=O)N1 (stereo not shown) [Compound 4, 3-(4-(1′-(4-bromo-7-cyclopentyl-5-oxo-5,7-dihydrobenzo[4,5]imidazo[1,2-a]quinazolin-9-yl)-[1,4′-bipiperidin]-4-yl)phenyl)piperidine-2,6-dione]	97	90	< 10	< 10		
O=C1CCC(N2Cc3cc(N4CCN(C5CCN(c6ccc7c(c6)n(C6CCCC6)c6nc(=O)c8c(Cl)cccc8n76)CC5)CC4)ccc3C2=O)C(=O)N1 (stereo not shown) [Compound 30, 3-(5-(4-(1-(4-chloro-7-cyclopentyl-5-oxo-5,7-dihydrobenzo[4,5]imidazo[1,2-a]quinazolin-9-yl)piperidin-4-yl)piperazin-1-yl)-1-oxoisoindolin-2-yl)piperidine-2,6-dione-HCl salt]	64	90	> 100	< 10		
CC(C)n1c2cc(N3CCC(N4CCN(c5ccc(NC6CCC(=O)NC6=O)cc5F)CC4)CC3)ccc2n2c3cccc(Cl)c3c(=O)nc12 (stereo not shown) [Compound 47, 3-((4-(4-(1-(4-chloro-7-isopropyl-5-oxo-5,7-dihydrobenzo[4,5]imidazo[1,2-a]quinazolin-9-yl)piperidin-4-yl)piperazin-1-yl)-3-fluorophenyl)amino)piperidine-2,6-dione]			> 100	< 10		
Cn1c2cc(N3CCN(C4CN(c5ccc6c(c5)C(=O)N(C5CCC(=O)NC5=O)C6=O)C4)CC3)ccc2n2c3cccc(N)c3c(=O)nc12 (stereo not shown) [Compound 45, 5-(3-(4-(4-amino-7-methyl-5-oxo-5,7-dihydrobenzo[4,5]imidazo[1,2-a]quinazolin-9-yl)piperazin-1-yl)azetidin-1-yl)-2-(2,6-dioxopiperidin-3-yl)isoindoline-1,3-dione]		21	> 100	> 100		
O=C1CCC(Nc2ccc(C3CCN(C4CCN(c5ccc6c(c5)[nH]c5nc(=O)c7c(Br)cccc7n56)CC4)CC3)c(F)c2)C(=O)N1 (stereo not shown) [Compound 34, 3-((4-(1′-(4-bromo-5-oxo-5,7-dihydrobenzo[4,5]imidazo[1,2-a]quinazolin-9-yl)-[1,4′-bipiperidin]-4-yl)-3-fluorophenyl)amino)piperidine-2,6-dione]			> 100	> 100		
Cn1c2cc(N3CCC(N4CCN(c5ccc6c(c5)CN(C5CCC(=O)NC5=O)C6=O)CC4)CC3)ccc2n2c3cccc(N)c3c(=O)nc12 (stereo not shown) [Compound 42, 3-(5-(4-(1-(4-amino-7-methyl-5-oxo-5,7-dihydrobenzo[4,5]imidazo[1,2-a]quinazolin-9-yl)piperidin-4-yl)piperazin-1-yl)-1-oxoisoindolin-2-yl)piperidine-2,6-dione]			> 100	> 100		
O=C1CCC(Nc2ccc(C3CCN(C4CCN(c5ccc6c(c5)n(C5CCCC5)c5nc(=O)c7c(Cl)cccc7n65)CC4)CC3)c(F)c2)C(=O)N1 (stereo not shown) [Compound 38, 3-((4-(1′-(4-chloro-7-cyclopentyl-5-oxo-5,7-dihydrobenzo[4,5]imidazo[1,2-a]quinazolin-9-yl)-[1,4′-bipiperidin]-4-yl)-3-fluorophenyl)amino)piperidine-2,6-dione]					< 10	< 10
CC(C)n1c2cc(N3CCC(N4CCN(c5ccc(C6CCC(=O)NC6=O)cc5)CC4)CC3)ccc2n2c3cccc(N)c3c(=O)nc12 (stereo not shown) [Compound 44, 3-(4-(4-(1-(4-amino-7-isopropyl-5-oxo-5,7-dihydrobenzo[4,5]imidazo[1,2-a]quinazolin-9-yl)piperidin-4-yl)piperazin-1-yl)phenyl)piperidine-2,6-dione]		16	> 100	> 100		
O=C1CCC(NC(=O)c2ccc(C3CCN(C4CCN(c5ccc6c(c5)n(C5CCCC5)c5nc(=O)c7c(Cl)cccc7n65)CC4)CC3)cc2F)C(=O)N1 (stereo not shown) [Compound 39, 4-(1′-(4-chloro-7-cyclopentyl-5-oxo-5,7-dihydrobenzo[4,5]imidazo[1,2-a]quinazolin-9-yl)-[1,4′-bipiperidin]-4-yl)-N-(2,6-dioxopiperidin-3-yl)-2-fluorobenzamide]			> 100	> 100		
COc1cccc2c1c(=O)nc1n(C3CCCC3)c3cc(N4CCC(N5CCC(c6ccc(NC7CCC(=O)NC7=O)cc6F)CC5)CC4)ccc3n21 (stereo not shown) [Compound 11, 3-((4-(1′-(7-cyclopentyl-4-methoxy-5-oxo-5,7-dihydrobenzo[4,5]imidazo[1,2-a]quinazolin-9-yl)-[1,4′-bipiperidin]-4-yl)-3-fluorophenyl)amino)piperidine-2,6-dione]			> 100	> 100		
CC(C)n1c2cc(N3CCC(N4CCN(c5ccc6c(c5)CN(C5CCC(=O)NC5=O)C6=O)CC4)CC3)ccc2n2c3cccc(Cl)c3c(=O)nc12 (stereo not shown) [Compound 48, 3-(5-(4-(1-(4-chloro-7-isopropyl-5-oxo-5,7-dihydrobenzo[4,5]imidazo[1,2-a]quinazolin-9-yl)piperidin-4-yl)piperazin-1-yl)-1-oxoisoindolin-2-yl)piperidine-2,6-dione]			> 100	< 10		

Source: patent US20260297094A1, “Tetracyclic Compounds as SMARCA2 and/or SMARCA4 Degraders” (Aurigene Oncology Limited, priority 2023, published 2026)
